Patent US8138189B2, “Substituted benzene compounds as modulators of the glucocorticoid receptor” (Hoffman-La Roche Inc., priority 2009, dated 2012)

target: T1, full length human recombinant glucocorticoid receptor (Homo sapiens, UniProt P04150); assay: Glucocorticoid Receptor Binding Assay (fluorescence polarization competitor assay, Fluormone GS Far Red tracer); conditions: not given
T1 construct: partially purified full length human recombinant glucocorticoid receptor; purchased Panvera/Invitrogen PV4302
T1 sequence (P04150 1-777): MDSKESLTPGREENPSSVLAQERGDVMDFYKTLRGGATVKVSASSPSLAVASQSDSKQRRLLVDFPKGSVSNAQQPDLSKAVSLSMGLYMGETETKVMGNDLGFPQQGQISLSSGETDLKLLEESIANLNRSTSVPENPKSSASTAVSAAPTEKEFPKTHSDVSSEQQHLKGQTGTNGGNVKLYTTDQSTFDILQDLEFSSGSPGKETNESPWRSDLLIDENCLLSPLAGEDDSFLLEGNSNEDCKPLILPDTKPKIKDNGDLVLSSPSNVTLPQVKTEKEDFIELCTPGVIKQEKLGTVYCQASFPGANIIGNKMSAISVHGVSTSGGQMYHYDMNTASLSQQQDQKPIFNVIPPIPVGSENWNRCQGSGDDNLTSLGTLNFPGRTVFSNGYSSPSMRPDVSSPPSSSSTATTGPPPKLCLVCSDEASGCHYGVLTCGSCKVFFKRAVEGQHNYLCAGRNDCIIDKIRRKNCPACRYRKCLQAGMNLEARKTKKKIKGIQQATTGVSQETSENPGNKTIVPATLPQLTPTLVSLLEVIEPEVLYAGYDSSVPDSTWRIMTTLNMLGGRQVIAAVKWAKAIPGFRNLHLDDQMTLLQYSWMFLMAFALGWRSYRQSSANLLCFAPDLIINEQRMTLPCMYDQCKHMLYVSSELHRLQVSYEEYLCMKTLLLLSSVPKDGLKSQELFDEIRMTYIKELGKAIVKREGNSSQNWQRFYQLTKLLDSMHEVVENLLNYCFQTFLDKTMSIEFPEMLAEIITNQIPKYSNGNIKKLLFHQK
Method in brief: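 Partially purified full-length recombinant human GR with a stabilizing coactivator peptide was incubated with Fluormone GS Far Red tracer and serially diluted compound for 3 h at 22 °C in the dark, pH 7.4. Fluorescence polarization was read at 610-660 nm. IC50 came from sigmoidal fitting, and Ki from Cheng-Prusoff.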

Structure (SMILES)	Ki [nM]
COC(=O)c1cccc(NC(=O)c2ccc([C@@H](C)[C@@](O)(c3ccnc(Cl)c3)C(F)(F)F)c(Cl)c2)c1 (relative stereo) [Example 40, 3-{3-Chloro-4-[2-(2-chloro-pyridin-4-yl)-3,3,3-trifluoro-2-hydroxy-1-methyl-propyl]-benzoylamino}-benzoic acid methyl ester]	121
CCOC(=O)c1cc(Oc2ccc(Cl)c([C@H](C)[C@](O)(c3ccc(=O)n(C)c3)C(F)(F)F)c2)ccc1Cl (stereo in doubt) [Example 195, 2-Chloro-5-{4-chloro-3-[3,3,3-trifluoro-2-hydroxy-1-methyl-2-(1-methyl-6-oxo-1,6-dihydro-pyridin-3-yl)-propyl]-phenoxy}-benzoic acid ethyl ester]	17
Cc1cc(C(O)(C(C)c2ccc(-c3ccc(C(=O)O)nc3)cc2Cl)C(F)(F)F)ccn1 (centres unmarked) [Example 65, 5-{3-Chloro-4-[3,3,3-trifluoro-2-hydroxy-1-methyl-2-(2-methyl-pyridin-4-yl)-propyl]-phenyl}-pyridine-2-carboxylic acid]	214
COC(=O)c1cnc(Oc2ccc([C@H](C)[C@](O)(c3cc(Cl)c(=O)n(C)c3)C(F)(F)F)c(Cl)c2)cc1C(F)(F)F (stereo in doubt) [Example 223, 6-{3-Chloro-4-[2-(5-chloro-1-methyl-6-oxo-1,6-dihydro-pyridin-3-yl)-3,3,3-trifluoro-2-hydroxy-1-methyl-propyl]-phenoxy}-4-trifluoromethyl-nicotinic acid methyl ester]	4.7
Cc1cc([C@](O)([C@H](C)c2ccc(Oc3ncc(C(=O)O)cc3Cl)cc2Cl)C(F)(F)F)cnc1C#N (relative stereo) [Example 231, 5-Chloro-6-{3-chloro-4-[2-(6-cyano-5-methyl-pyridin-3-yl)-3,3,3-trifluoro-2-hydroxy-1-methyl-propyl]-phenoxy}-nicotinic acid]	1.7
CC(c1ccc(Oc2cnc(C(=O)O)cn2)cc1Cl)C(O)(c1ccnc(Cl)c1)C(F)(F)F (centres unmarked) [Example 115, 5-{3-Chloro-4-[2-(2-chloro-pyridin-4-yl)-3,3,3-trifluoro-2-hydroxy-1-methyl-propyl]-phenoxy}-pyrazine-2-carboxylic acid]	96.8
COc1cc(C(=O)O)ccc1Oc1ccc([C@@H](C)[C@@](O)(c2ccnc(Cl)c2)C(F)(F)F)c(Cl)c1 (stereo in doubt) [Example 92, 4-{3-Chloro-4-[2-(2-chloro-pyridin-4-yl)-3,3,3-trifluoro-2-hydroxy-1-methyl-propyl]-phenoxy}-3-methoxy-benzoic acid]	5.8
COC(=O)c1ccnc(NC(=O)c2ccc([C@@H](C)[C@@](O)(c3ccnc(Cl)c3)C(F)(F)F)c(Cl)c2)c1 (stereo in doubt) [Example 27, 2-{3-Chloro-4-[-2-(2-chloro-pyridin-4-yl)-3,3,3-trifluoro-2-hydroxy-1-methyl-propyl]-benzoylamino}-isonicotinic acid methyl ester]	94.7
C[C@H](c1ccc(COc2ccc(C(=O)O)nn2)cc1Cl)[C@@](O)(c1ccnc(Cl)c1)C(F)(F)F (stereo in doubt) [Example 123, 6-{3-Chloro-4-[2-(2-chloro-pyridin-4-yl)-3,3,3-trifluoro-2-hydroxy-1-methyl-propyl]-benzyloxy}-pyridazine-3-carboxylic acid]	34.3
Cc1cnc(C(O)(C(C)c2ccc(OCc3ccc(C(=O)O)cc3)cc2Cl)C(F)(F)F)cn1 (centres unmarked) [Example 2, 4-{3-Chloro-4-[3,3,3-trifluoro-2-hydroxy-1-methyl-2-(5-methyl-pyrazin-2-yl)-propyl]-phenoxymethyl}-benzoic acid]	21.5
C[C@H](c1ccc(Oc2ccc(C(=O)O)cc2)c(Cl)c1Cl)[C@@](O)(c1ccc(=O)n(C)c1)C(F)(F)F (stereo in doubt) [Example 198, 4-{2,3-Dichloro-4-[3,3,3-trifluoro-2-hydroxy-1-methyl-2-(1-methyl-6-oxo-1,6-dihydro-pyridin-3-yl)-propyl]-phenoxy}-benzoic acid]	3.4
C[C@H](c1cc(Oc2ccc(C(=O)O)cn2)ccc1Cl)[C@@](O)(c1ccnc(Cl)c1)C(F)(F)F (relative stereo) [Example 133, 6-{4-Chloro-3-[2-(2-chloro-pyridin-4-yl)-3,3,3-trifluoro-2-hydroxy-1-methyl-propyl]-phenoxy}-nicotinic acid]	207
CCOC(=O)c1cc(Oc2ccc([C@H](C)[C@](O)(c3cc(C)c(=O)n(C)c3)C(F)(F)F)c(Cl)c2)ccc1F (stereo in doubt) [Example 212, 5-{3-Chloro-4-[2-(1,5-dimethyl-6-oxo-1,6-dihydro-pyridin-3-yl)-3,3,3-trifluoro-2-hydroxy-1-methyl-propyl]-phenoxy}-2-fluoro-benzoic acid ethyl ester]	1.9
Cc1cc(C(O)(C(C)c2ccc(-c3ccc(C(=O)O)cn3)cc2Cl)C(F)(F)F)ccn1 (centres unmarked) [Example 62, 6-{3-Chloro-4-[3,3,3-trifluoro-2-hydroxy-1-methyl-2-(2-methyl-pyridin-4-yl)-propyl]-phenyl}-nicotinic acid]	335
COC(=O)c1ccc(Oc2ccc(C(C)C(O)(c3ccnc(C)c3)C(F)(F)F)c(Cl)c2)nn1 (centres unmarked) [Example 104, 6-{3-Chloro-4-[3,3,3-trifluoro-2-hydroxy-1-methyl-2-(2-methyl-pyridin-4-yl)-propyl]-phenoxy}-pyridazine-3-carboxylic acid methyl ester]	87.4

Results, then the compound that gave them:

Ki [nM]	Structure (SMILES)
4	C[C@H](c1ccc(Oc2ccc(C(=O)O)c(C(F)(F)F)c2)cc1Cl)[C@@](O)(c1ccc(=O)n(C)c1)C(F)(F)F (stereo in doubt) [Example 220, 4-{3-Chloro-4-[3,3,3-trifluoro-2-hydroxy-1-methyl-2-(1-methyl-6-oxo-1,6-dihydro-pyridin-3-yl)-propyl]-phenoxy}-2-trifluoromethyl-benzoic acid]
98.7	CCn1cc([C@@](O)([C@@H](C)c2ccc(-c3ccc(C(=O)O)c(OC)c3)cc2Cl)C(F)(F)F)ccc1=O (stereo in doubt) [Example 188, 3′-Chloro-4′-[2-(1-ethyl-6-oxo-1,6-dihydro-pyridin-3-yl)-3,3,3-trifluoro-2-hydroxy-1-methyl-propyl]-3-methoxy-biphenyl-4-carboxylic acid]
14.9	COC(=O)c1ccc(-c2ccc([C@@H](C)[C@@](O)(c3ccnc(Cl)c3)C(F)(F)F)c(Cl)c2)cc1F (relative stereo) [Example 53, 3′-Chloro-4′-[2-(2-chloro-pyridin-4-yl)-3,3,3-trifluoro-2-hydroxy-1-methyl-propyl]-3-fluoro-biphenyl-4-carboxylic acid methyl ester]
7.4	CCn1cc([C@@](O)([C@@H](C)c2ccc(-c3ccc(C(=O)OC)c(OC)c3)cc2Cl)C(F)(F)F)ccc1=O (stereo in doubt) [Example 187, 3′-Chloro-4′-[2-(1-ethyl-6-oxo-1,6-dihydro-pyridin-3-yl)-3,3,3-trifluoro-2-hydroxy-1-methyl-propyl]-3-methoxy-biphenyl-4-carboxylic acid methyl ester]
505	C[C@@H](c1ccc(-c2ccc(C(=O)O)c(Cl)c2)cc1Cl)[C@](O)(c1ccc(=O)[nH]c1)C(F)(F)F (relative stereo) [Example 179, 3,3′-Dichloro-4′-[3,3,3-trifluoro-2-hydroxy-1-methyl-2-(6-oxo-1,6-dihydro-pyridin-3-yl)-propyl]-biphenyl-4-carboxylic acid]
10.4	CCn1cc([C@@](O)([C@@H](C)c2ccc(-c3ccc(F)c(C(=O)O)c3)cc2Cl)C(F)(F)F)ccc1=O (stereo in doubt) [Example 184, 3′-Chloro-4′-[2-(1-ethyl-6-oxo-1,6-dihydro-pyridin-3-yl)-3,3,3-trifluoro-2-hydroxy-1-methyl-propyl]-4-fluoro-biphenyl-3-carboxylic acid]
6.2	COC(=O)c1ccc(-c2ccc([C@H](C)[C@](O)(c3ccc(=O)n(C)c3)C(F)(F)F)c(Cl)c2)cc1F [Example 166, 3′-Chloro-3-fluoro-4′-[3,3,3-trifluoro-2-hydroxy-1-methyl-2-(1-methyl-6-oxo-1,6-didydro-pyridin-3-yl)-propyl]-biphenyl-4-carboxylic acid methyl ester]

same assay, conditions: Ki calculated from IC50 by Cheng-Prusoff; 3 hours at 22° C., pH 7.4

Ki [nM]	Structure (SMILES)
1.7	Cc1cc([C@@](O)([C@@H](C)c2ccc(Oc3ccc(C(=O)O)cc3C(F)(F)F)cc2Cl)C(F)(F)F)cn(C)c1=O (single isomer, unassigned) [Example 241, 4-{3-Chloro-4-[2-(1,5-dimethyl-6-oxo-1,6-dihydro-pyridin-3-yl)-3,3,3-trifluoro-2-hydroxy-1-methyl-propyl]-phenoxy}-3-trifluoromethyl-benzoic acid]
